# Measured values taken from patent US11072596B2, “Poly(ADP-ribose) polymerase inhibitor, preparation method and use” (SELECTION BIOSCIENCE LLC, priority 2017, dated 2021).
# Target: T1, PARP1 (Homo sapiens, UniProt P09874)
# T1 construct: purchased BPS 80580
# Assay: PARP1 Colorimetric Assay (PARP-1 kinase inhibitory activity)
# Assay type: biochemical
# Details: PARP1 colorimetric assay kit, 1 hour at room temperature; read-out: PARP1 (in vitro enzymatic inhibitory activity, IC50)
# Description: PARP1 kinase activity was tested by the following method:
# PARP1 Colorimetric Assay Kit (BPS, Cat #80580)
# 1. PARP1 Colorimetric Assay
# 2) 50 μL of diluted coating solution was added to each well for overnight at 4° C.
# 4) 200 μL of blocking buffer was added to each well and incubated at room temperature for 90 minutes.
# 1) A reaction solution was prepared in a ratio of […] 2.5 μL 10×PARP buffer+2.5 μL 10×PARP Assay mixture+5 μL Activated DNA+15 μL deionized water per well, and 25 μL of the reaction solution was added to each well (see Table 1).
# 4) 100 μL of colorimetric HRP substrate was added to each well and reacted at room temperature for 20 minutes.
# 5) 100 μL of 2 M H2SO4 was added to each well and OD 450 nm was read on a microplate reader.
# T1 sequence (P09874 whole entry): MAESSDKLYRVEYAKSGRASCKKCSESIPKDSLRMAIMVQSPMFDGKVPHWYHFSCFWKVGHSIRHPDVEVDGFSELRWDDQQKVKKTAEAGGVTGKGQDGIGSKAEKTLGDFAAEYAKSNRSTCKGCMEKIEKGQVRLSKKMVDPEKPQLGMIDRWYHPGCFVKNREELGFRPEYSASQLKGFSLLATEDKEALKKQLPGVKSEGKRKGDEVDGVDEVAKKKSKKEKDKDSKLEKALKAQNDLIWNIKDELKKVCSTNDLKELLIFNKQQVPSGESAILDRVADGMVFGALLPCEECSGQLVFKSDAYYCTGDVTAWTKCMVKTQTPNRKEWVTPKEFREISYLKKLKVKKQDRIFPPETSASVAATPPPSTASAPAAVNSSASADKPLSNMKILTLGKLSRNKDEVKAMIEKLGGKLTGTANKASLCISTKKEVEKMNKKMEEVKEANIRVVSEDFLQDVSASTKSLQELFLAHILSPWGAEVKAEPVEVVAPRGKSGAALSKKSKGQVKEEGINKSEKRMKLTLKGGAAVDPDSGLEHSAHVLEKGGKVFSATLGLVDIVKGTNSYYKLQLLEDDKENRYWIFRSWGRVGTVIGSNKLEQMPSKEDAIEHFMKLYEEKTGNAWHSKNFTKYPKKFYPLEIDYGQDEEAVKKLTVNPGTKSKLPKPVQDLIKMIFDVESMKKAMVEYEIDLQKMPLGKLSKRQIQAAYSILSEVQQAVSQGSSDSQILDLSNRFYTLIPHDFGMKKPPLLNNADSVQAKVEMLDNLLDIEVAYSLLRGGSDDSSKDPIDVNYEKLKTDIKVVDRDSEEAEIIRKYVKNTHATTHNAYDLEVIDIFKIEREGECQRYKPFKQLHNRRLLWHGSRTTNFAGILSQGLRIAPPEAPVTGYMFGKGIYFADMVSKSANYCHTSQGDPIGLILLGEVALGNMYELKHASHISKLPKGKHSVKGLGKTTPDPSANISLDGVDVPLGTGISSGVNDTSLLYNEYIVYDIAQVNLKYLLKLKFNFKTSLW
row,SMILES,IC50
1,"NC(=O)c1cccc2cn(-c3ccc(C4(F)CCCNC4)cc3)nc12 (racemic) [Example 22, 2-(4-(3-Fluoropiperidin-3-yl)phenyl)-2H-indazole-7-carboxamide]",< 100 nM
2,"CC1(c2ccc(-n3cc4cccc(C(N)=O)c4n3)cc2)CCCNC1 (racemic) [Example 43, 2-(4-(3-Methylpiperidin-3-yl)phenyl)-2H-indazole-7-carboxamide]",100 to 500 nM
3,"NC(=O)c1cccc2cn(-c3ccc([C@]4(F)CCCNC4)cc3)nc12 (single isomer, unassigned) [Example 24, (R or S)-2-(4-(3-fluoropiperidin-3-yl)phenyl)-2H-indazole-7-carboxamide]",< 100 nM
4,"C[C@]1(c2ccc(-n3cc4cccc(C(N)=O)c4n3)cc2)CCCNC1 (single isomer, unassigned) [Example 45, (R or S)-2-(4-(3-methylpiperidin-3-yl)phenyl)-2H-indazole-7-carboxamide]",100 to 500 nM
5,[2H]C1(c2ccc(-n3cc4cc(F)cc(C(N)=O)c4n3)cc2)CCCNC1 (centres unmarked) [Example 4],< 100 nM
6,[2H][C@@]1(c2ccc(-n3cc4cc(F)cc(C(N)=O)c4n3)cc2)CCCNC1 [Example 5],< 100 nM
7,[2H][C@]1(c2ccc(-n3cc4cc(F)cc(C(N)=O)c4n3)cc2)CCCNC1 [Example 6],< 100 nM
8,[2H]C1(c2ccc(-n3cc4cccc(C(N)=O)c4n3)cc2F)CCCNC1 (centres unmarked) [Example 7],< 100 nM
9,[2H][C@]1(c2ccc(-n3cc4cccc(C(N)=O)c4n3)cc2F)CCCNC1 [Example 8],< 100 nM
10,[2H][C@@]1(c2ccc(-n3cc4cccc(C(N)=O)c4n3)cc2F)CCCNC1 [Example 9],< 100 nM
11,[2H]C1(c2ccc(-n3nc4c(C(N)=O)cccc4c3F)cc2)CCCNC1 (centres unmarked) [Example 10],100 to 500 nM
12,[2H][C@]1(c2ccc(-n3nc4c(C(N)=O)cccc4c3F)cc2)CCCNC1 [Example 11],100 to 500 nM
13,[2H][C@@]1(c2ccc(-n3nc4c(C(N)=O)cccc4c3F)cc2)CCCNC1 [Example 12],100 to 500 nM
14,[2H]C1(c2ccc(-n3cc4cccc(C(N)=O)c4n3)c(F)c2)CCCNC1 (centres unmarked) [Example 13],100 to 500 nM
15,[2H][C@]1(c2ccc(-n3cc4cccc(C(N)=O)c4n3)c(F)c2)CCCNC1 [Example 14],100 to 500 nM
16,[2H][C@@]1(c2ccc(-n3cc4cccc(C(N)=O)c4n3)c(F)c2)CCCNC1 [Example 15],100 to 500 nM
17,[2H]C1(c2ccc(-n3cc4cc(F)cc(C(N)=O)c4n3)cc2F)CCCNC1 (centres unmarked) [Example 16],< 100 nM
18,[2H][C@@]1(c2ccc(-n3cc4cc(F)cc(C(N)=O)c4n3)cc2F)CCCNC1 [Example 17],< 100 nM
19,[2H][C@]1(c2ccc(-n3cc4cc(F)cc(C(N)=O)c4n3)cc2F)CCCNC1 [Example 18],< 100 nM
20,[2H]C1(c2ccc(-n3cc4cc(F)cc(C(N)=O)c4n3)c(F)c2)CCCNC1 (centres unmarked) [Example 19],< 100 nM
21,[2H][C@@]1(c2ccc(-n3cc4cc(F)cc(C(N)=O)c4n3)c(F)c2)CCCNC1 [Example 20],< 100 nM
22,[2H][C@]1(c2ccc(-n3cc4cc(F)cc(C(N)=O)c4n3)c(F)c2)CCCNC1 [Example 21],< 100 nM
23,NC(=O)c1cc(F)cc2cn(-c3ccc(C4(F)CCCNC4)cc3)nc12 (centres unmarked) [Example 25],< 100 nM
24,NC(=O)c1cc(F)cc2cn(-c3ccc([C@]4(F)CCCNC4)cc3)nc12 [Example 26],< 100 nM
25,NC(=O)c1cc(F)cc2cn(-c3ccc([C@@]4(F)CCCNC4)cc3)nc12 [Example 27],< 100 nM
26,NC(=O)c1cccc2cn(-c3ccc(C4(F)CCCNC4)c(F)c3)nc12 (centres unmarked) [Example 28],< 100 nM
27,NC(=O)c1cccc2cn(-c3ccc([C@@]4(F)CCCNC4)c(F)c3)nc12 [Example 29],< 100 nM

row,SMILES,IC50
1,NC(=O)c1cccc2c(F)n(-c3ccc([C@]4(F)CCCNC4)cc3)nc12 [Example 30],< 100 nM
2,NC(=O)c1cccc2c(F)n(-c3ccc(C4(F)CCCNC4)cc3)nc12 (centres unmarked) [Example 31],100 to 500 nM
3,NC(=O)c1cccc2c(F)n(-c3ccc([C@@]4(F)CCCNC4)cc3)nc12 [Example 32],100 to 500 nM
4,NC(=O)c1cccc2c(F)n(-c3ccc([C@]4(F)CCCNC4)cc3)nc12 [Example 33],100 to 500 nM
5,NC(=O)c1cccc2cn(-c3ccc(C4(F)CCCNC4)cc3F)nc12 (centres unmarked) [Example 34],100 to 500 nM
6,NC(=O)c1cccc2cn(-c3ccc([C@@]4(F)CCCNC4)cc3F)nc12 [Example 35],100 to 500 nM
7,NC(=O)c1cccc2cn(-c3ccc([C@]4(F)CCCNC4)cc3F)nc12 [Example 36],100 to 500 nM
8,NC(=O)c1c(F)ccc2cn(-c3ccc(C4(F)CCCNC4)cc3)nc12 (centres unmarked) [Example 37],100 to 500 nM
9,NC(=O)c1c(F)ccc2cn(-c3ccc([C@]4(F)CCCNC4)cc3)nc12 [Example 38],100 to 500 nM
10,NC(=O)c1c(F)ccc2cn(-c3ccc([C@@]4(F)CCCNC4)cc3)nc12 [Example 39],100 to 500 nM
11,NC(=O)c1ccc(F)c2cn(-c3ccc(C4(F)CCCNC4)cc3)nc12 (centres unmarked) [Example 40],100 to 500 nM
12,NC(=O)c1ccc(F)c2cn(-c3ccc([C@]4(F)CCCNC4)cc3)nc12 [Example 41],100 to 500 nM
13,NC(=O)c1ccc(F)c2cn(-c3ccc([C@@]4(F)CCCNC4)cc3)nc12 [Example 42],100 to 500 nM
14,"C[C@]1(c2ccc(-n3cc4cccc(C(N)=O)c4n3)cc2)CCCNC1 [Example 44, (R or S)-2-(4-(3-methylpiperidin-3-yl)phenyl)-2H-indazole-7-carboxamide]",100 to 500 nM
15,CC1(c2ccc(-n3cc4cc(F)cc(C(N)=O)c4n3)cc2)CCCNC1 (centres unmarked) [Example 46],100 to 500 nM
16,C[C@@]1(c2ccc(-n3cc4cc(F)cc(C(N)=O)c4n3)cc2)CCCNC1 [Example 47],100 to 500 nM
17,C[C@]1(c2ccc(-n3cc4cc(F)cc(C(N)=O)c4n3)cc2)CCCNC1 [Example 48],100 to 500 nM
18,CC1(c2ccc(-n3cc4cccc(C(N)=O)c4n3)cc2F)CCCNC1 (centres unmarked) [Example 49],100 to 500 nM
19,C[C@]1(c2ccc(-n3cc4cccc(C(N)=O)c4n3)cc2F)CCCNC1 [Example 50],100 to 500 nM
20,C[C@@]1(c2ccc(-n3cc4cccc(C(N)=O)c4n3)cc2F)CCCNC1 [Example 51],100 to 500 nM
21,CC1(c2ccc(-n3nc4c(C(N)=O)cccc4c3F)cc2)CCCNC1 (centres unmarked) [Example 52],500 to 1000 nM
22,C[C@]1(c2ccc(-n3nc4c(C(N)=O)cccc4c3F)cc2)CCCNC1 [Example 53],500 to 1000 nM
23,C[C@@]1(c2ccc(-n3nc4c(C(N)=O)cccc4c3F)cc2)CCCNC1 [Example 54],500 to 1000 nM
24,CC1(c2ccc(-n3cc4cccc(C(N)=O)c4n3)c(F)c2)CCCNC1 (centres unmarked) [Example 55],100 to 500 nM
25,C[C@]1(c2ccc(-n3cc4cccc(C(N)=O)c4n3)c(F)c2)CCCNC1 [Example 56],100 to 500 nM
26,C[C@@]1(c2ccc(-n3cc4cccc(C(N)=O)c4n3)c(F)c2)CCCNC1 [Example 57],100 to 500 nM

# System: not listed separately
# Assay: Pharmacokinetic study in rats
# Details: SD rats, PO 10 mg/kg
# Description: SD rats were used as test animals, and the drug concentrations in plasma at different times after intravenous and intragastric administration of the compounds of examples were determined by LC/MS/MS method(s) to study the pharmacokinetics of the compound in the present disclosure in rats
# Healthy adult male SD (Sprague-Dawley) rats, 3 animals per test compound, 6-9 weeks old, weighing 250±50 g, were purchased from Shanghai SLAC Laboratory Animal Co., Ltd.
# The appropriate amount of sample was weighed out, 0.5% Methocel/2% tween 80 was added to the final volume, and 2 mg/mL was prepared for intragastric administration.
# Each 3 male SD rats of each test compound were taken by intragastric administration at a dosage of 10 mg/kg after fasting overnight.
# Blood samples of each animal were collected at different time points 0.083-24 h from jugular vein puncture after administration, K2-EDTA anticoagulation, centrifugation, and blood plasma were collected, frozen at −70° C. until LC/MS/MS analysis.
SMILES,F,"exposure amount (AUC) compared with Niraparib, in words"
"[2H]C1(c2ccc(-n3cc4cccc(C(N)=O)c4n3)cc2)CCCNC1 (single isomer, unassigned) [Example 3, (R or S)-2-(4-(piperidin-3-D-3-yl)phenyl)-2H-indazole-7-carboxamide]",62.3%,significantly higher

# Same assay, conditions: SD rats, table head: Dose PO (10 mg/kg)
SMILES,CL,Vdss
"[2H]C1(c2ccc(-n3cc4cccc(C(N)=O)c4n3)cc2)CCCNC1 (single isomer, unassigned) [Example 3, (R or S)-2-(4-(piperidin-3-D-3-yl)phenyl)-2H-indazole-7-carboxamide]",24.9 mL/min/kg,6.04 L/kg

# Same assay, conditions: male, Sprague-Dawley, rat, in vivo, po, 10 mg/kg
SMILES,F,MRT,T1/2
"NC(=O)c1cccc2cn(-c3ccc([C@]4(F)CCCNC4)cc3)nc12 (single isomer, unassigned) [Example 24, (R or S)-2-(4-(3-fluoropiperidin-3-yl)phenyl)-2H-indazole-7-carboxamide]",61.3%,4.63 h,2.64 h

# Same assay, conditions: male, Sprague-Dawley, rat, plasma, po, 10 mg/kg, AUC, SD rats, PO 10 mg/kg
row,SMILES,AUC
1,"[2H]C1(c2ccc(-n3cc4cccc(C(N)=O)c4n3)cc2)CCCNC1 (single isomer, unassigned) [Example 3, (R or S)-2-(4-(piperidin-3-D-3-yl)phenyl)-2H-indazole-7-carboxamide]",5160 ng·h/mL

# Same assay, conditions: male, Sprague-Dawley, rat, plasma, po, 10 mg/kg, Cmax, SD rats, PO 10 mg/kg
row,SMILES,Cmax
1,"[2H]C1(c2ccc(-n3cc4cccc(C(N)=O)c4n3)cc2)CCCNC1 (single isomer, unassigned) [Example 3, (R or S)-2-(4-(piperidin-3-D-3-yl)phenyl)-2H-indazole-7-carboxamide]",549 ng/mL

# Same assay, conditions: male, Sprague-Dawley, rat, plasma, po, 10 mg/kg, MRT, SD rats, PO 10 mg/kg
row,SMILES,MRT
1,"[2H]C1(c2ccc(-n3cc4cccc(C(N)=O)c4n3)cc2)CCCNC1 (single isomer, unassigned) [Example 3, (R or S)-2-(4-(piperidin-3-D-3-yl)phenyl)-2H-indazole-7-carboxamide]",7.95 h

# Same assay, conditions: male, Sprague-Dawley, rat, plasma, po, 10 mg/kg, T1/2, SD rats, PO 10 mg/kg
row,SMILES,half-life
1,"[2H]C1(c2ccc(-n3cc4cccc(C(N)=O)c4n3)cc2)CCCNC1 (single isomer, unassigned) [Example 3, (R or S)-2-(4-(piperidin-3-D-3-yl)phenyl)-2H-indazole-7-carboxamide]",3.18 h

# Target: hERG potassium ion channel (Homo sapiens, UniProt Q12809)
# Assay: in vitro
# Details: human
# Description: CHO-hERG cells were cultured in a 175 cm^2 flask, and when the cell density was increased to 60-80%, the medium was removed and washed with 7 mL of PBS (Phosphate Buffered Saline phosphate buffer), and then digested with 3 mL of Detachin.
# The single-cell high impedance sealing and the whole-cell mode formation process were all automatically completed by the Qpatch instrument. After obtaining the whole-cell recording mode, the cells were clamped at −80 mV (millivolt). Before giving a 5-second+40 mV depolarization stimulus, a 50 ms-50 mV pre-voltage was first given, repolarized to −50 mV for 5 seconds, and then returned to −80 mV. This voltage stimulation was applied every 15 seconds. After recording for 2 minutes, extracellular fluid was given for 5 minutes, and then the administration process was started. The compound concentration started from the lowest test concentration, and each test concentration was given for 2.5 minutes. […] At least 3 cells were tested at each concentration (n≥3).
# The 20 mM compound mother solution was diluted with extracellular fluid, and 5 μL of 20 mM compound mother solution was added to 2495 μL of extracellular solution, diluted 500-fold to 40 μM, and then sequentially performed 3-fold continuous dilution in an extracellular fluid containing 0.2% DMSO to obtain the final concentration to be tested.
# The experimental data were analyzed by XLFit software.
# Sequence of hERG potassium ion channel (Q12809 whole entry): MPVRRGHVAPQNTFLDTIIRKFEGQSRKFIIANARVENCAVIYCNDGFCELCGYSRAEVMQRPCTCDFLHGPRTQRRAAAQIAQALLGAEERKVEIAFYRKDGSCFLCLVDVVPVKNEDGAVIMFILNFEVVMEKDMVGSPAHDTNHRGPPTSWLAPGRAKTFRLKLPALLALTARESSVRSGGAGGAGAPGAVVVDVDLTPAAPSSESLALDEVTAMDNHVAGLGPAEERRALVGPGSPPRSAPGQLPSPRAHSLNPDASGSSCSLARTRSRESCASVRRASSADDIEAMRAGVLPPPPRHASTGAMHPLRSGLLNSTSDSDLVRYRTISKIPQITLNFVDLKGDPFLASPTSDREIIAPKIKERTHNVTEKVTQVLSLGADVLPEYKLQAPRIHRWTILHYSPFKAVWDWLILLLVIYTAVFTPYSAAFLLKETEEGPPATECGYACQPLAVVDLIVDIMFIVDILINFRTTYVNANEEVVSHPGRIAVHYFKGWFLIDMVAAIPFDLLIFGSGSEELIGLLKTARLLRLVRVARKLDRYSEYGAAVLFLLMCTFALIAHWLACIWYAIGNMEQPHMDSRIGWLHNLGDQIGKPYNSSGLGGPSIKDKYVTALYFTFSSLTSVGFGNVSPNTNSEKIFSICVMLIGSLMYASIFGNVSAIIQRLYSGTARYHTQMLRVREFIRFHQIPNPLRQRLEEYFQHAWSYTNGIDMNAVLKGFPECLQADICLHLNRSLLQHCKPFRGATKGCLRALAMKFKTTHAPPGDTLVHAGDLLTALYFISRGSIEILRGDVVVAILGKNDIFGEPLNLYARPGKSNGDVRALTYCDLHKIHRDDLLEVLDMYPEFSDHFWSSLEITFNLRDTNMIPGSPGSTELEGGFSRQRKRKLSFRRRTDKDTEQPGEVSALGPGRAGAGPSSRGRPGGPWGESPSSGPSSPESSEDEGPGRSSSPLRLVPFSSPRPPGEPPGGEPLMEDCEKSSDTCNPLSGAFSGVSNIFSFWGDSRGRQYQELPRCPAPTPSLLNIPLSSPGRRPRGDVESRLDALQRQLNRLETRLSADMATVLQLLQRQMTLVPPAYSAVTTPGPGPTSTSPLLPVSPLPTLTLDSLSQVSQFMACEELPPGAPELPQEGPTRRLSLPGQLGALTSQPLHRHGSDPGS
row,SMILES,"inhibition at 2.5 min, 40 µM"
1,COc1cc(N)c(Cl)cc1C(=O)NC1CCN(CCCOc2ccc(F)cc2)CC1OC (centres unmarked) [Cisapride],87.4%
